The source of these data is US20260062412A1, “NITROGEN-CONTAINING HETEROCYCLIC COMPOUND HAVING MYT1 INHIBITORY ACTIVITY” (CHUGAI SEIYAKU KABUSHIKI KAISHA, priority 2023, published 2026).

The assay has as its target MYT1 protein (Homo sapiens (Human), UniProt Q99640). Briefly: Test for binding to ATP binding site of MYT1 (Kinase Tracer 178 / Eu-Anti-GST antibody TR-FRET). Particulars: ATP binding site of MYT1, 30 minutes at room temperature. (In TR-FRET formats the signal depends on donor and acceptor labels being close together.)

MYT1 protein, sequence (Q99640 whole entry): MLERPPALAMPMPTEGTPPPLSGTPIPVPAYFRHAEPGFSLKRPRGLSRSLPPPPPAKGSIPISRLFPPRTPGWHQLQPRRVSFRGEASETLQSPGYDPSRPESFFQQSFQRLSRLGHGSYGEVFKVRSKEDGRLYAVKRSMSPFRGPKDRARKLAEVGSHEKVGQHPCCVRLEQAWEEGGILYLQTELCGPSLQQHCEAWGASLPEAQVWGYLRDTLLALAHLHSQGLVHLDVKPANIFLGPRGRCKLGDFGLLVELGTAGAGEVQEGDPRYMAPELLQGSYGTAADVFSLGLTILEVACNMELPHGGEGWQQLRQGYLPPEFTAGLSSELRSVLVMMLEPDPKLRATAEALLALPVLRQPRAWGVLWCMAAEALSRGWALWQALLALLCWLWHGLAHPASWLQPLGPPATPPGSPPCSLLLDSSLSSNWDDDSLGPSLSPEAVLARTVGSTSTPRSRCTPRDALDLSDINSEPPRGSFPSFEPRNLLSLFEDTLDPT

What is called IC50 is the concentration at which inhibition is half-maximal. High values mean weaker potency, low ones greater potency. Turning to `Nc1c(-c2ccc(F)c3[nH]ncc23)c2cc(N3CC(N4CC(F)(F)C4)C3)c3cccnc3c2[nH]c1=O` [Compound D11, 3-Amino-6-[3-(3,3-difluoroazetidin-1-yl)azetidin-1-yl]-4-(7-fluoro-1H-indazol-4-yl)-1H-1,10-phenanthrolin-2-one], the IC50 is 20 nM.

Take `Nc1c(-c2ccc(F)c3[nH]ncc23)c2cc(N3CCN4CCOC[C@H]4C3)c3cccnc3c2[nH]c1=O` [Compound D12, 6-[(9aR)-3,4,6,7,9,9a-hexahydro-1H-pyrazino[2,1-c][1,4]oxazin-8-yl]-3-amino-4-(7-fluoro-1H-indazol-4-yl)-1H-1,10-phenanthrolin-2-one]: the IC50 was 49 nM.

`Nc1c(-c2ccc(F)c3[nH]ncc23)c2cc(N3CCN4CCOC[C@@H]4C3)c3cccnc3c2[nH]c1=O` [Compound D13, 6-[(9aS)-3,4,6,7,9,9a-hexahydro-1H-pyrazino[2,1-c][1,4]oxazin-8-yl]-3-amino-4-(7-fluoro-1H-indazol-4-yl)-1H-1,10-phenanthrolin-2-one]: the IC50 was 25 nM.

The compound `Nc1c(-c2ccc(F)c3[nH]ncc23)c2cc(N3CCN(CC(F)F)CC3)c3cccnc3c2[nH]c1=O` [Compound D14, 3-Amino-6-[4-(2,2-difluoroethyl)piperazin-1-yl]-4-(7-fluoro-1H-indazol-4-yl)-1H-1,10-phenanthrolin-2-one] registered an IC50 of 33 nM.

`Nc1c(-c2ccc(F)c3[nH]ncc23)c2cc(N3CCN(CC(F)(F)F)CC3)c3cccnc3c2[nH]c1=O` [Compound D15, 3-Amino-4-(7-fluoro-1H-indazol-4-yl)-6-[4-(2,2,2-trifluoroethyl)piperazin-1-yl]-1H-1,10-phenanthrolin-2-one] yielded an IC50 of 69 nM.

Compound `CS(=O)(=O)Nc1cc2c(-c3ccc(F)c4[nH]ncc34)c(N)c(=O)[nH]c2c2ncccc12` [Compound D16, N-[8-Amino-7-(7-fluoro-1H-indazol-4-yl)-9-oxo-10H-1,10-phenanthroline-5-yl]methanesulfonamide] gave a concentration for half-maximal inhibition (IC50) of 2.7 nM.

In the case of `Nc1c(-c2ccc(F)c3[nH]ncc23)c2cc(NS(=O)(=O)C3CC3)c3cccnc3c2[nH]c1=O` [Compound D17, N-[8-amino-7-(7-fluoro-1H-indazol-4-yl)-9-oxo-10H-1,10-phenanthrolin-5-yl]cyclopropanesulfonamide], the IC50 is 3.1 nM.

As for `COc1cc2c(-c3ccc(F)c4[nH]ncc34)c(N)c(=O)[nH]c2c2ncccc12` [Compound D18, 3-Amino-4-(7-fluoro-1H-indazol-4-yl)-6-methoxy-1H-1,10-phenanthrolin-2-one], the IC50 worked out at 0.25 nM.

For `CC(=O)Nc1cc2c(-c3ccc(F)c4[nH]ncc34)c(N)c(=O)[nH]c2c2ncccc12` [Compound D19, N-[8-amino-7-(7-fluoro-1H-indazol-4-yl)-9-oxo-10H-1,10-phenanthrolin-5-yl]acetamide], the IC50 was determined as 22 nM.

The compound `CC(C)Nc1cc2c(-c3ccc(F)c4[nH]ncc34)c(N)c(=O)[nH]c2c2ncccc12` [Compound D20, 3-Amino-4-(7-fluoro-1H-indazol-4-yl)-6-(propan-2-ylamino)-1H-1,10-phenanthrolin-2-one] gave an IC50 of 7 nM.

Consider `Nc1c(-c2ccc(F)c3[nH]ncc23)c2cc(C3CCNCC3)c3cccnc3c2[nH]c1=O` [Compound D21, 3-Amino-4-(7-fluoro-1H-indazol-4-yl)-6-piperidin-4-yl-1H-1,10-phenanthrolin-2-one], for which the IC50 was 3.8 nM.

Turning to `CN1CCC(c2cc3c(-c4ccc(F)c5[nH]ncc45)c(N)c(=O)[nH]c3c3ncccc23)CC1` [Compound D22, 3-Amino-4-(7-fluoro-1H-indazol-4-yl)-6-(1-methylpiperidin-4-yl)-1H-1,10-phenanthrolin-2-one], the IC50 was found to be 2.9 nM.

In turn, `CC(C)N1CCC(c2cc3c(-c4ccc(F)c5[nH]ncc45)c(N)c(=O)[nH]c3c3ncccc23)CC1` [Compound D23, 3-Amino-4-(7-fluoro-1H-indazol-4-yl)-6-(1-propan-2-ylpiperidin-4-yl)-1H-1,10-phenanthrolin-2-one] registered an IC50 of 6.4 nM.

Compound `Nc1c(-c2ccc(F)c3[nH]ncc23)c2cc(C3CCN(C4CCC4)CC3)c3cccnc3c2[nH]c1=O` [Compound D24, 3-Amino-6-(1-cyclobutylpiperidin-4-yl)-4-(7-fluoro-1H-indazol-4-yl)-1H-1,10-phenanthrolin-2-one] came in with an IC50 of 6.9 nM.

In turn, `Nc1c(-c2ccc(F)c3[nH]ncc23)c2cc(C3CCN(C4CCOCC4)CC3)c3cccnc3c2[nH]c1=O` [Compound D25, 3-Amino-4-(7-fluoro-1H-indazol-4-yl)-6-[1-(oxan-4-yl)piperidin-4-yl]-1H-1,10-phenanthrolin-2-one] had an IC50 of 7.8 nM.

For the compound `CCN1CCC(c2cc3c(-c4ccc(F)c5[nH]ncc45)c(N)c(=O)[nH]c3c3ncccc23)CC1` [Compound D26, 3-Amino-6-(1-ethylpiperidin-4-yl)-4-(7-fluoro-1H-indazol-4-yl)-1H-1,10-phenanthrolin-2-one], the concentration for half-maximal inhibition (IC50) was determined as 3.3 nM.

For `Nc1c(-c2ccc(F)c3[nH]ncc23)c2cc(C3CCN(C4COC4)CC3)c3cccnc3c2[nH]c1=O` [Compound D27, 3-Amino-4-(7-fluoro-1H-indazol-4-yl)-6-[1-(oxetan-3-yl)piperidin-4-yl]-1H-1,10-phenanthrolin-2-one], the IC50 stood at 0.53 nM.

Regarding `Nc1c(-c2ccc(F)c3[nH]ncc23)c2cc(C3CNC3)c3cccnc3c2[nH]c1=O` [Compound D28, 3-Amino-6-(azetidin-3-yl)-4-(7-fluoro-1H-indazol-4-yl)-1H-1,10-phenanthrolin-2-one], the IC50 came out at 1.7 nM.

As for `CC(C)N1CC(c2cc3c(-c4ccc(F)c5[nH]ncc45)c(N)c(=O)[nH]c3c3ncccc23)C1` [Compound D29, 3-Amino-4-(7-fluoro-1H-indazol-4-yl)-6-(1-propan-2-ylazetidin-3-yl)-1H-1,10-phenanthrolin-2-one], the 50% inhibitory concentration (IC50) worked out at 5.7 nM.

Turning to `CN1CC(c2cc3c(-c4ccc(F)c5[nH]ncc45)c(N)c(=O)[nH]c3c3ncccc23)C1` [Compound D30, 3-Amino-4-(7-fluoro-1H-indazol-4-yl)-6-(1-methylazetidin-3-yl)-1H-1,10-phenanthrolin-2-one], the IC50 was 2.9 nM.

In turn, `Nc1c(-c2cccc3[nH]ncc23)c2ccccc2oc1=O` [Compound E1, 3-Amino-4-(1H-indazol-4-yl) chromen-2-one] displayed an IC50 of 1100 nM.

In turn, `O=c1[nH]c2ccccc2c(-c2cccc3[nH]ncc23)c1O` [Compound E2, 3-Hydroxy-4-(1H-indazol-4-yl)-1H-quinolin-2-one] displayed a concentration for half-maximal inhibition (IC50) of 840 nM.

With `Nc1c(-c2ccc(F)c3[nH]ncc23)c2cc(Br)c3ncc(F)cc3c2[nH]c1=O` [Compound F1, 3-Amino-6-bromo-9-fluoro-4-(7-fluoro-1H-indazol-4-yl)-1H-1,7-phenanthrolin-2-one], the IC50 is 12 nM.

Compound `Cc1cc2c(-c3ccc(F)c4[nH]ncc34)c(N)c(=O)[nH]c2c2cc(F)cnc12` [Compound F3, 3-Amino-9-fluoro-4-(7-fluoro-1H-indazol-4-yl)-6-methyl-1H-1,7-phenanthrolin-2-one] came in with an IC50 of 4 nM.

Take `Nc1c(-c2cc(F)c(F)c3[nH]ncc23)c2cc(Br)c3ncc(F)cc3c2[nH]c1=O` [Compound F4, 3-Amino-6-bromo-4-(6,7-difluoro-1H-indazol-4-yl)-9-fluoro-1H-1,7-phenanthrolin-2-one]: the IC50 worked out at 22 nM.

As to `COc1cc2c(-c3cc(F)c(F)c4[nH]ncc34)c(N)c(=O)[nH]c2c2cc(F)cnc12` [Compound F5, 3-Amino-4-(6,7-difluoro-1H-indazol-4-yl)-9-fluoro-6-methoxy-1H-1,7-phenanthrolin-2-one], the IC50 was determined as 3.3 nM.

Regarding `Cc1cc2c(-c3cc(F)c(F)c4[nH]ncc34)c(N)c(=O)[nH]c2c2cc(F)cnc12` [Compound F6, 3-Amino-4-(6,7-difluoro-1H-indazol-4-yl)-9-fluoro-6-methyl-1H-1,7-phenanthrolin-2-one], the IC50 was found to be 9.3 nM.

Take `Nc1c(-c2ccc(F)c3[nH]ncc23)c2cc(Br)c3nccnc3c2[nH]c1=O` [Compound G1, 8-Amino-5-bromo-7-(7-fluoro-1H-indazol-4-yl)-10H-pyrido[2,3-f]quinoxalin-9-one]: the IC50 is 16 nM.

The compound `O=c1[nH]c2c(cc(Br)c3nccnc32)c(-c2ccc(F)c3[nH]ncc23)c1Cl` [Compound G2, 5-Bromo-8-chloro-7-(7-fluoro-1H-indazol-4-yl)-10H-pyrido[2,3-f]quinoxalin-9-one] yielded an IC50 of 270 nM.

`Cc1cc2c(-c3ccc(F)c4[nH]ncc34)c(N)c(=O)[nH]c2c2nccnc12` [Compound G3, 8-Amino-7-(7-fluoro-1H-indazol-4-yl)-5-methyl-10H-pyrido[2,3-f]quinoxalin-9-one] yielded an IC50 of 7.9 nM.

For `Nc1c(-c2ccc(F)c3[nH]ncc23)c2cc(C3CC3)c3nccnc3c2[nH]c1=O` [Compound G4, 8-Amino-5-cyclopropyl-7-(7-fluoro-1H-indazol-4-yl)-10H-pyrido[2,3-f]quinoxalin-9-one], the IC50 was determined as 3.2 nM.

`CS(=O)(=O)Nc1cc2c(-c3ccc(F)c4[nH]ncc34)c(N)c(=O)[nH]c2c2nccnc12` [Compound G5, N-[8-amino-7-(7-fluoro-1H-indazol-4-yl)-9-oxo-10H-pyrido[2,3-f]quinoxalin-5-yl]methanesulfonamide]: the IC50 is 9.3 nM.

`Nc1c(-c2ccc(F)c3[nH]ncc23)c2cc(NS(=O)(=O)C3CC3)c3nccnc3c2[nH]c1=O` [Compound G6, N-[8-amino-7-(7-fluoro-1H-indazol-4-yl)-9-oxo-10H-pyrido[2,3-f]quinoxalin-5-yl]cyclopropanesulfonamide] showed an IC50 of 7.4 nM.

Consider `CN1CCN(c2cc3c(-c4ccc(F)c5[nH]ncc45)c(N)c(=O)[nH]c3c3nccnc23)CC1` [Compound G7, 8-Amino-7-(7-fluoro-1H-indazol-4-yl)-5-(4-methylpiperazin-1-yl)-10H-pyrido[2,3-f]quinoxalin-9-one], for which the IC50 worked out at 2.5 nM.

Consider `CC(=O)Nc1cc2c(-c3ccc(F)c4[nH]ncc34)c(N)c(=O)[nH]c2c2nccnc12` [Compound G8, N-[8-amino-7-(7-fluoro-1H-indazol-4-yl)-9-oxo-10H-pyrido[2,3-f]quinoxalin-5-yl]acetamide], for which the IC50 was determined as 1.4 nM.
